Laboratory results from patent US20250059164A1, “IRAK DEGRADERS AND USES THEREOF” (Kymera Therapeutics, Inc., priority 2023, published 2025).

Target: T1, IRAK4 (Homo sapiens, UniProt Q9NWZ3)
T1 construct: endogenous in cells; host or cells: OCI-LY10
T1 sequence (Q9NWZ3 1-460): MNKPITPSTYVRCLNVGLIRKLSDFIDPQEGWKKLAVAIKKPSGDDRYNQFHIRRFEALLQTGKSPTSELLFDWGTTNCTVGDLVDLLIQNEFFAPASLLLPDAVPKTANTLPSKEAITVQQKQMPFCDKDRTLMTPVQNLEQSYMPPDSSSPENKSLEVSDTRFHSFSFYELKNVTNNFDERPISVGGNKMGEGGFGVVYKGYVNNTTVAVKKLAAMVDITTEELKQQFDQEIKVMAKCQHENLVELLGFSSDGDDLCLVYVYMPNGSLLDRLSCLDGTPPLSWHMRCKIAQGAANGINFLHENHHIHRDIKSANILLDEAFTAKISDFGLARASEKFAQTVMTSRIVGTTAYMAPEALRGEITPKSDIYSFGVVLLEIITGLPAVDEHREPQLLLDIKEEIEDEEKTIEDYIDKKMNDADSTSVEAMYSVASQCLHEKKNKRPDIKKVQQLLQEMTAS
Test: IRAK4 MSD degradation in OCI-LY10
Format: cell-based
Settings: OCI-LY10 cells, 24 hrs, Meso Scale Discovery
In short: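 Remaining IRAK4 protein measured by Meso Scale Discovery electrochemiluminescence sandwich assay on lysates of OCI-LY10 cells. Cells were exposed for 4 to 24 hours (37° C., 5% CO2) to eight 1:3-diluted concentrations starting at 1 to 10 μM. DC50 derived by three-parameter logistic fitting.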

In the case of `Cn1c(=O)n(C2CCC(=O)NC2=O)c2cccc([C@H]3CCN(C[C@H]4CC[C@H](n5cc6cc(NC(=O)c7cccc(C(F)(F)F)n7)c(C(C)(C)O)cc6n5)CC4)C[C@@H]3F)c21` (stereo partly drawn) [I-63], the DC50 is reported as under 10 nM.

`CN(C[C@H]1C[C@@H](n2cc(NC(=O)c3cnn4ccc(N5C[C@H]6C[C@@H]5CO6)nc34)c(C(F)F)n2)C1)[C@@H]1CCN(c2cccc3c2n(C)c(=O)n3C2CCC(=O)NC2=O)C[C@@H]1F` (stereo partly drawn) [I-64] showed a DC50 of under 10 nM.

Molecule `CN(C[C@H]1C[C@@H](n2cc(NC(=O)c3cnn4ccc(N5C[C@H]6C[C@@H]5CO6)nc34)c(C(F)F)n2)C1)[C@H]1CCN(c2cccc3c2n(C)c(=O)n3C2CCC(=O)NC2=O)C[C@H]1F` (stereo partly drawn) [I-65] has a DC50 of under 10 nM.

`O=C1CCN(c2cncc3c(N4CC(O)(CN5CCN(C[C@H]6CC[C@H](n7cc(NC(=O)c8cnn9ccc(N%10C[C@H]%11C[C@@H]%10CO%11)nc89)c(C(F)F)n7)CC6)CC5)C4)cccc23)C(=O)N1` [I-67] showed a DC50 of under 10 nM.

Work on `CN(C[C@H]1CC[C@H](n2cc3cc(NC(=O)c4cccc(C(F)(F)F)n4)c(C(C)(C)O)cc3n2)CC1)[C@H]1CCN(c2cccc3c2n(C)c(=O)n3C2CCC(=O)NC2=O)C[C@@H]1F` (stereo partly drawn) [I-68] yielded a DC50 of under 10 nM.

For `CN(C[C@H]1CC[C@H](n2cc3cc(NC(=O)c4cccc(C(F)(F)F)n4)c(C(C)(C)O)cc3n2)CC1)[C@@H]1CCN(c2cccc3c2n(C)c(=O)n3C2CCC(=O)NC2=O)C[C@@H]1F` (stereo partly drawn) [I-69], the DC50 was under 10 nM.

Work on `CN(C[C@H]1CC[C@H](n2cc3cc(NC(=O)c4cccc(C(F)(F)F)n4)c(C(C)(C)O)cc3n2)CC1)[C@H]1CCN(c2cccc3c2n(C)c(=O)n3C2CCC(=O)NC2=O)C[C@H]1F` (stereo partly drawn) [I-70] yielded a DC50 of under 10 nM.

For `O=C1CCC(c2noc3c(NC(=O)CN4CCN(C[C@H]5CC[C@H](n6cc7cc(NC(=O)c8cccc(C(F)(F)F)n8)ncc7n6)CC5)CC4)cccc23)C(=O)N1` (stereo partly drawn) [I-71], the DC50 was 10 to 100 nM.

For `O=C1CCC(Nc2ccc(N3CC(O)(CN4CCN(C[C@H]5CC[C@H](n6cc(NC(=O)c7cnn8ccc(N9C[C@H]%10C[C@@H]9CO%10)nc78)c(C(F)F)n6)CC5)CC4)C3)cc2)C(=O)N1` (stereo partly drawn) [I-72], the DC50 was 10 to 100 nM.

Molecule `O=C1CCN(c2cncc3c(N4CC(CN5CCN(C[C@H]6CC[C@H](n7cc(NC(=O)c8cnn9ccc(N%10C[C@H]%11C[C@@H]%10CO%11)nc89)c(C(F)F)n7)CC6)CC5)C4)cccc23)C(=O)N1` [I-74] has a DC50 of under 10 nM.

Molecule `CC(C)(O)c1cc2nn([C@H]3CC[C@H](CN4CCN(c5ccc(C6CCC(=O)NC6=O)c(Cl)c5)CC4)CC3)cc2cc1NC(=O)c1cccc(C(F)(F)F)n1` (stereo partly drawn) [I-76] has a DC50 of under 10 nM.

`CC(C)(O)c1cc2nn([C@H]3CC[C@H](CN4CCN(c5cccc(NC6CCC(=O)NC6=O)c5)CC4)CC3)cc2cc1NC(=O)c1cccc(C(F)(F)F)n1` (stereo partly drawn) [I-77] showed a DC50 of 10 to 100 nM.

In the case of `COc1cc2nn([C@H]3CC[C@H](CN(C)[C@H]4CCN(c5cccc6c5n(C)c(=O)n6C5CCC(=O)NC5=O)C[C@@H]4F)CC3)cc2cc1NC(=O)c1cccc(C(F)(F)F)n1` (stereo partly drawn) [I-80], the DC50 is reported as under 10 nM.

`COc1cc2nn([C@H]3CC[C@H](CN(C)[C@@H]4CCN(c5cccc6c5n(C)c(=O)n6C5CCC(=O)NC5=O)C[C@@H]4F)CC3)cc2cc1NC(=O)c1cccc(C(F)(F)F)n1` (stereo partly drawn) [I-81] showed a DC50 of under 10 nM.

In the case of `COc1cc2nn([C@H]3CC[C@H](CN(C)[C@H]4CCN(c5cccc6c5n(C)c(=O)n6C5CCC(=O)NC5=O)C[C@H]4F)CC3)cc2cc1NC(=O)c1cccc(C(F)(F)F)n1` (stereo partly drawn) [I-82], the DC50 is reported as under 10 nM.

In the case of `N#Cc1cncc(C(=O)Nc2cc3cn([C@H]4CC[C@H](CN5CCN(CC(=O)Nc6cccc7c(C8CCC(=O)NC8=O)noc67)CC5)CC4)nc3cn2)c1` (stereo partly drawn) [I-84], the DC50 is reported as over 200 nM.

`Cn1nc(C2CCC(=O)NC2=O)c2cccc(N3CC(O)(CN4CCN(C[C@H]5CC[C@H](n6cc(NC(=O)c7cnn8ccc(N9C[C@H]%10C[C@@H]9CO%10)nc78)c(C(F)F)n6)CC5)CC4)C3)c21` (stereo partly drawn) [I-86] gave a DC50 of under 10 nM.

For `Cc1nn([C@@H]2CCC(=O)NC2=O)c2cccc(N3CC(CN4CCN(C[C@H]5CC[C@H](n6cc(NC(=O)c7cnn8ccc(N9C[C@H]%10C[C@@H]9CO%10)nc78)c(C(F)F)n6)CC5)CC4)C3)c12` [I-87], the DC50 was under 10 nM.
